Patent US20240182445A1 (ONO PHARMACEUTICAL CO., LTD., priority 2019, published 2024)

Biological target: T1, human TREK-1 (Homo sapiens, UniProt O95069)
T1 construct: expressed in transfected cells
T1 sequence (O95069 1-426): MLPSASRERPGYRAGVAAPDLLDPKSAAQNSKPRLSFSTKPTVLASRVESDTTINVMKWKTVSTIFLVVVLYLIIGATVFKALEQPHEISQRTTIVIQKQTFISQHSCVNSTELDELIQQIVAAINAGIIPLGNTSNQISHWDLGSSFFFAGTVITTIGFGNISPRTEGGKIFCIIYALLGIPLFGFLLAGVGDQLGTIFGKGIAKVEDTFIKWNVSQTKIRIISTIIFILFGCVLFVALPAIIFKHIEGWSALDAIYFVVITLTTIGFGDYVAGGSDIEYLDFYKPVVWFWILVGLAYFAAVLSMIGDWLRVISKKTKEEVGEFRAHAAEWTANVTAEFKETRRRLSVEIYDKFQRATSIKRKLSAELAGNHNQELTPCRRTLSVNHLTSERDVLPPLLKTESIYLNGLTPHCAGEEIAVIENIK
Experiment: TREK-1 Thallium (Tl+) flux assay, Method 1
Assay type: cell-based
Details: TREK-1 Thallium (Tl+) flux assay, Method 1
How it was run: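 Readout: Thallos fluorescence ratio, taken 25 s post-thallium relative to the pre-thallium baseline average, then converted to % inhibition. Cells were CHO-K1 stably expressing human TREK-1, dye-loaded and exposed to test compound (vehicle 0.3% DMSO) for 10 min prior to thallium stimulation.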

| IC50 [nM] | SMILES |
| --- | --- |
| 1340 | Cc1cc(-c2cnn(-c3ccc(F)cc3)c2)cnc1NC(=O)c1c(Cl)cnn1C1CC(C#N)C1 (centres unmarked) [Compound 394, 4-chloro-1-(3-cyanocyclobutyl)-N-(5-(1-(4-fluorophenyl)-1H-pyrazol-4-yl)-3-methylpyridin-2-yl)-1H-pyrazole-5-carboxamide] |
| 1420 | Cc1cc(-c2cnn(-c3ccc(F)cc3)c2)cnc1NC(=O)c1c(Cl)cnn1[C@H]1CCOC1 [Compound 395, (S)-4-chloro-N-(5-(1-(4-fluorophenyl)-1H-pyrazol-4-yl)-3-methylpyridin-2-yl)-1-(tetrahydrofuran-3-yl)-1H-pyrazole-5-carboxamide] |
| 1600 | Cc1cc(-c2ccc(C(F)(F)F)nc2)cnc1NC(=O)c1c(Cl)cnn1C1CCN(C(=O)OC(C)(C)C)CC1 [Compound 396, tert-butyl 4-(4-chloro-5-((5-methyl-6′-(trifluoromethyl)-[3,3′-bipyridin]-6-yl)carbamoyl)-1H-pyrazol-1-yl)piperidine-1-carboxylate] |
| 1680 | CCC(=O)N1CCC(n2ncc(Cl)c2C(=O)Nc2ccc(OCc3ccccc3)cc2C)CC1 [Compound 397, N-(4-(benzyloxy)-2-methylphenyl)-4-chloro-1-(1-propionylpiperidin-4-yl)-1H-pyrazole-5-carboxamide] |
| 1740 | Cc1cc(OCc2ccccc2)ccc1NC(=O)c1c(Cl)cnn1C1CC2(C1)CN(C(=O)C(C)C)C2 [Compound 398, N-(4-(benzyloxy)-2-methylphenyl)-4-chloro-1-(2-isobutyryl-2-azaspiro[3.3]heptan-6-yl)-1H-pyrazole-5-carboxamide] |
| 1760 | CC(=O)N[C@H]1CC[C@@H](n2ncc(Cl)c2C(=O)Nc2ccc(OCc3ccccc3)cc2C)CC1 [Compound 399, 1-(cis-4-acetamidocyclohexyl)-N-(4-(benzyloxy)-2-methylphenyl)-4-chloro-1H-pyrazole-5-carboxamide] |
| 1780 | Cc1cc(OCc2ccccc2)ccc1NC(=O)c1c(Cl)cnn1C1CCN(C(=O)C2CC2)CC1 [Compound 400, N-(4-(benzyloxy)-2-methylphenyl)-4-chloro-1-(1-(cyclopropanecarbonyl)piperidin-4-yl)-1H-pyrazole-5-carboxamide] |
| 1780 | Cc1cc(OCc2ccccc2)ccc1NC(=O)c1c(Cl)cnn1C1CCN(C(=O)CC(C)C)CC1 [Compound 401, N-(4-(benzyloxy)-2-methylphenyl)-4-chloro-1-(1-(3-methylbutanoyl)piperidin-4-yl)-1H-pyrazole-5-carboxamide] |
| 2160 | Cc1cc(OCc2ccccc2)ccc1NC(=O)c1c(Cl)cnn1C1CCN(C(=O)C2CCC2)CC1 [Compound 402, N-(4-(benzyloxy)-2-methylphenyl)-4-chloro-1-(1-(cyclobutanecarbonyl)piperidin-4-yl)-1H-pyrazole-5-carboxamide] |
| 2290 | COc1ccc(-c2cnc(NC(=O)c3c(Cl)cnn3C3CCN(C(=O)OC(C)(C)C)CC3)c(C)c2)c(C)c1 [Compound 403, tert-butyl 4-(4-chloro-5-((5-(4-methoxy-2-methylphenyl)-3-methylpyridin-2-yl)carbamoyl)-1H-pyrazol-1-yl)piperidine-1-carboxylate] |
| 2300 | Cc1cc(OCc2ccccc2)ccc1NC(=O)c1c(Cl)cnn1[C@H]1CC[C@@H](NC(=O)OC(C)(C)C)CC1 [Compound 404, tert-butyl (cis-4-(5-((4-(benzyloxy)-2-methylphenyl)carbamoyl)-4-chloro-1H-pyrazol-1-yl)cyclohexyl)carbamate] |
| 2310 | Cc1cc(OCc2ccccc2)ccc1NC(=O)c1c(Cl)cnn1C1CCN(C(=O)C(C)(C)C)CC1 [Compound 405, N-(4-(benzyloxy)-2-methylphenyl)-4-chloro-1-(1-pivaloylpiperidin-4-yl)-1H-pyrazole-5-carboxamide] |
| 2540 | Cc1cc(OCc2ccccc2)ccc1NC(=O)c1c(Cl)cnn1C1CC2(C1)CN(C(=O)C1CC1)C2 [Compound 406, N-(4-(benzyloxy)-2-methylphenyl)-4-chloro-1-(2-(cyclopropanecarbonyl)-2-azaspiro[3.3]heptan-6-yl)-1H-pyrazole-5-carboxamide] |
| 2570 | COc1ccc(-c2cnc(NC(=O)c3c(Cl)cnn3C3CCN(C(=O)OC(C)(C)C)CC3)c(C)c2)cn1 [Compound 407, tert-butyl 4-(4-chloro-5-((6′-methoxy-5-methyl-[3,3′-bipyridin]-6-yl)carbamoyl)-1H-pyrazol-1-yl)piperidine-1-carboxylate] |
| 2670 | CCc1cc(-c2cnc(NC(=O)c3c(Cl)cnn3C3CCN(C(=O)OC(C)(C)C)CC3)c(C)c2)ccc1OC [Compound 408, tert-butyl 4-(4-chloro-5-((5-(3-ethyl-4-methoxyphenyl)-3-methylpyridin-2-yl)carbamoyl)-1H-pyrazol-1-yl)piperidine-1-carboxylate] |
| 2770 | Cc1ccc(-n2cc(-c3cnc(NC(=O)c4c(Cl)cnn4C4CCN(C(=O)OC(C)(C)C)CC4)c(C)c3)cn2)cc1 [Compound 409, tert-butyl 4-(4-chloro-5-((3-methyl-5-(1-(p-tolyl)-1H-pyrazol-4-yl)pyridin-2-yl)carbamoyl)-1H-pyrazol-1-yl)piperidine-1-carboxylate] |
| 2780 | Cc1cc(-c2ccc(-c3cccs3)cc2)cnc1NC(=O)c1c(Cl)cnn1C1CCN(C(=O)OC(C)(C)C)CC1 [Compound 410, tert-butyl 4-(4-chloro-5-((3-methyl-5-(4-(thiophen-2-yl)phenyl)pyridin-2-yl)carbamoyl)-1H-pyrazol-1-yl)piperidine-1-carboxylate] |
| 2840 | Cc1cc(OCc2ccccc2)ccc1NC(=O)c1c(Cl)cnn1C1CCN(C(=O)C(C)C)CC1 [Compound 411, N-(4-(benzyloxy)-2-methylphenyl)-4-chloro-1-(1-isobutyrylpiperidin-4-yl)-1H-pyrazole-5-carboxamide] |
| 3000 | Cc1cc(OCc2ccccc2)ccc1NC(=O)c1c(Cl)cnn1CC1CN(C(=O)C2COCCO2)CCO1 (centres unmarked) [Compound 412, 1-((4-(1,4-dioxane-2-carbonyl)morpholin-2-yl)methyl)-N-(4-(benzyloxy)-2-methylphenyl)-4-chloro-1H-pyrazole-5-carboxamide] |
| 3530 | Cc1cc(-c2cnn(-c3ccccc3)c2)cnc1NC(=O)c1c(Cl)cnn1C1CCN(C(=O)OC(C)(C)C)CC1 [Compound 413, tert-butyl 4-(4-chloro-5-((3-methyl-5-(1-phenyl-1H-pyrazol-4-yl)pyridin-2-yl)carbamoyl)-1H-pyrazol-1-yl)piperidine-1-carboxylate] |
| 3620 | CC(=O)N1CCC(n2ncc(Cl)c2C(=O)Nc2ncc(-c3ccc(OC(F)(F)F)cc3)cc2C)CC1 [Compound 414, 1-(1-acetylpiperidin-4-yl)-4-chloro-N-(3-methyl-5-(4-(trifluoromethoxy)phenyl)pyridin-2-yl)-1H-pyrazole-5-carboxamide] |
| 4160 | Cc1cc(OCc2ccccc2)ccc1NC(=O)c1c(Cl)cnn1CC1CN(C(=O)C2CC2C)CCO1 (centres unmarked) [Compound 417, N-(4-(benzyloxy)-2-methylphenyl)-4-chloro-1-((4-(2-methylcyclopropane-1-carbonyl)morpholin-2-yl)methyl)-1H-pyrazole-5-carboxamide] |
| 4170 | CC(=O)N1CCC(n2ncc(Cl)c2C(=O)Nc2ncc(-c3ccc(CC(C)C)cc3)cc2C)CC1 [Compound 418, 1-(1-acetylpiperidin-4-yl)-4-chloro-N-(5-(4-isobutylphenyl)-3-methylpyridin-2-yl)-1H-pyrazole-5-carboxamide] |
| 4190 | COc1ncc(-c2cnc(NC(=O)c3c(Cl)cnn3C3CCN(C(=O)OC(C)(C)C)CC3)c(C)c2)cn1 [Compound 419, tert-butyl 4-(4-chloro-5-((5-(2-methoxypyrimidin-5-yl)-3-methylpyridin-2-yl)carbamoyl)-1H-pyrazol-1-yl)piperidine-1-carboxylate] |
| 4380 | Cc1cc(OCc2ccccc2)ccc1NC(=O)c1c(Cl)cnn1CC1CN(C(=O)C(C)C)CCO1 (centres unmarked) [Compound 420, N-(4-(benzyloxy)-2-methylphenyl)-4-chloro-1-((4-isobutyrylmorpholin-2-yl)methyl)-1H-pyrazole-5-carboxamide] |
| 4400 | CC(=O)N1CCC(n2ncc(Cl)c2C(=O)Nc2ncc(-c3ccc(OC(F)F)cc3)cc2C)CC1 [Compound 421, 1-(1-acetylpiperidin-4-yl)-4-chloro-N-(5-(4-(difluoromethoxy)phenyl)-3-methylpyridin-2-yl)-1H-pyrazole-5-carboxamide] |
| 4460 | CC(=O)N1CCC(n2ncc(Cl)c2C(=O)Nc2ncc(-c3cnc4ccccc4c3)cc2C)CC1 [Compound 422, 1-(1-acetylpiperidin-4-yl)-4-chloro-N-(3-methyl-5-(quinolin-3-yl)pyridin-2-yl)-1H-pyrazole-5-carboxamide] |
| 4820 | CC(=O)N1CCOC(Cn2ncc(Cl)c2C(=O)Nc2ccc(OCc3ccccc3)cc2C)C1 (centres unmarked) [Compound 423, 1-((4-acetylmorpholin-2-yl)methyl)-N-(4-(benzyloxy)-2-methylphenyl)-4-chloro-1H-pyrazole-5-carboxamide] |

| SMILES | IC50 [nM] |
| --- | --- |
| CCCCOc1ccc(-c2cnc(NC(=O)c3c(Cl)cnn3C3CCN(C(C)=O)CC3)c(C)c2)cc1 [Compound 416, 1-(1-acetylpiperidin-4-yl)-N-(5-(4-butoxyphenyl)-3-methylpyridin-2-yl)-4-chloro-1H-pyrazole-5-carboxamide] | 4070 |
